Experimental data: patent US8933039B2 (NPS Pharmaceuticals, Inc., priority 1995, dated 2015)
Non-standard residues stand in square brackets, D forms with d. Residues, ends and D or L forms follow the SMILES beside them. Pen = CC(C)(S)[C@H](N)C(=O)O; Aib = CC(C)(N)C(=O)O

Key:
CD1 mice = assay: Intestinotrophic activity assessment: small bowel weight in mice; assay type: in vivo; conditions: for % Activity (small bowel inducing activity relative to native rat GLP-2(1-33) = 100%): mice, as Example 4; for % Increase in small bowel weight: CD1 mice, 2.5 μg peptide s.c. b.i.d. in PBS, sacrificed 10 or 14 days, relative to vehicle only
Procedure: Recipients were CD1 mice obtained from Charles River Laboratory (Ontario, Canada). The CD1 mice were aged-matched females at time of injection (n=3-4 per group), 6 weeks of age, unless otherwise specified. The animals were allowed a minimum of 24 hours to acclimatize to the laboratory facility before the initiation of each experiment. Animals were identified by ear punch. The mice were not restricted by diet or activity during the experiments. The light/dark cycle was 12 hours, between 6 pm to 6 am. Controls were age- and sex-matched (n=3-4) animals. Mice were injected subcutaneously, twice a day (b.i.d.), with 2.5 μg peptide in a total volume of 0.5 cc of PBS and were monitored daily in the laboratory facility. Animals were sacrificed 10 or 14 days after injection, and were fasted at least 20 hours before sacrifice.
The mice were anaesthetised with CO2 and exsanguinated by cardiac puncture. Blood was collected in 75 μl of TED (Trasysol; EDTA (5000 KIU/ml: 1.2 mg/ml; Diprotin-A), and the blood was centrifuged at 14 k×g for 5 minutes and the plasma was stored at −70 prior to analysis. The small bowel was removed from the peritoneal cavity, from pylorus to cecum, cleaned weighed and measured. For comparative purpose, sections from each animal were obtained from the identical anatomical position. Fragments each measuring 1.5-2.0 cm in length were obtained 8±2 cm, 18±2 cm, 32±2 cm from pylorus for histomorphometry representing proximal jejunum, distal jejunum and distal ileum. Each small bowel fragment was opened longitudinally on its antimesenteric border in a tissue block and then placed on 10% formalin (vol./vol.) overnight, then transferred to 70% […].
Percentage change in small bowel weight was calculated by dividing the mean change in bowel weight of analog treated mice, relative to mice treated with vehicle only, by the mean bowel weight of mice treated with vehicle only, and multiplying this figure by 100.
Experiments assessing the small bowel inducing activity of various analogs was repeated as described above for Example 4. In these experiments, the small bowel inducing activity of each analog in mice was calculated relative to that of native rat GLP-2(1-33) (expressed as 100% of activity). Resistance of analogs to DPP-IV cleavage was performed as described above in Example 3.

DPP-IV = DPP-IV (Homo sapiens, UniProt P27487); assay: Assay for resistance to dipeptidyl peptidase IV (RP-HPLC of cleavage product); conditions: human, isolated human placental DPP-IV (dipeptidyl peptidase IV), pH 7.4, % Cleaved by DPP-IV, as Example 3: human placental DPP-IV, 37° C., PBS pH 7.4
Sequence of DPP-IV (P27487 whole entry): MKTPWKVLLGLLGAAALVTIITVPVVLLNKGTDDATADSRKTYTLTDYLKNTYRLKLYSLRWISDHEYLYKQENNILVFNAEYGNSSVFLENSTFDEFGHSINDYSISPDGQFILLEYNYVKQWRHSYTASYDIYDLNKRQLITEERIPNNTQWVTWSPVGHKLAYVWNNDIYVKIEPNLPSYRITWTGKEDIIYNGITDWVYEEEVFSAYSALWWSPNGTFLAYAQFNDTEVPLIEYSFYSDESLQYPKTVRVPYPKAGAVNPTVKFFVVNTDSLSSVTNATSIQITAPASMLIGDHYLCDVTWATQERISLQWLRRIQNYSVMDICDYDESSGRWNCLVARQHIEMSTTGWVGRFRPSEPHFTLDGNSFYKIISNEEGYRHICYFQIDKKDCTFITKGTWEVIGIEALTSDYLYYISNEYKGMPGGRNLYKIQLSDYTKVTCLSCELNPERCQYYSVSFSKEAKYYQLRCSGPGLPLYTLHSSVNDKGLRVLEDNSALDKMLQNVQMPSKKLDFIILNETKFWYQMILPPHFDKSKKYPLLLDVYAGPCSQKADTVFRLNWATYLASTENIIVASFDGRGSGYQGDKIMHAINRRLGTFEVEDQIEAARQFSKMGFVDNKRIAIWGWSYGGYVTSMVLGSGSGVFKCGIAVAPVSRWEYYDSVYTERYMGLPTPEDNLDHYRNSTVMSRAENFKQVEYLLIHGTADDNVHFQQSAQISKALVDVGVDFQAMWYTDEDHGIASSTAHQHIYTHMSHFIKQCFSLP
Procedure: The mixture was incubated at 37° C. in a circulating water bath for 24 hours. The incubation was quenched by the addition of 50 μl of a solution of diprotin A prepared at a concentration of 4 mg/ml in PBS. Each peptide was tested in duplicate.
Each sample was analyzed by reverse-phase (RP) HPLC as follows: 90 μl of the quenched incubation mixture was injected onto a Rainin Dynamax 300 Å, C18, 5 micron, 4.6×250 millimeter column. The samples were eluted with 0.1% trifluoroacetic acid (TFA) in water modified with 0.1% acetonitrile using a linear gradient and a flow rate of 1 ml per minute. Sample components were detected at 214 nanometers (nm). The extent of cleavage was measured by relative integration of the peak corresponding to the cleavage product compared to that of the remaining undigested parent peptide.

Compound | % Activity (small bowel inducing activity relative to native rat GLP-2(1-33) = 100%) (CD1 mice) [%] | metabolised at 24 h, 0.19 mg/ml (DPP-IV) [%] | % Increase in small bowel weight (CD1 mice) [%]
H-HMDGSFSDEMNTILDNLAARDFINWLIQTKITD-OH [[Met2]hGLP-2(1-33)] | 170 | 0 | –
H-HADGSFSDEMNTILDNLAARDFINYLIQTKITD-OH [[Tyr25]hGLP-2(1-33)] | 64 | 48 | –
H-HQDGSFSDEMNTILDNLAARDFINWLIQTKITD-OH [[Gln2]hGLP-2(1-33)] | 100 | 0 | –
H-DADGSFSDEMNTILDNLAARDFINWLIQTKITD-OH [[Asp1]hGLP-2(1-33)] | 60 | 0 | –
CC[C@H](C)[C@H](NC(=O)[C@H](Cc1ccccc1)NC(=O)[C@H](CC(=O)O)NC(=O)[C@H](CCCNC(=N)N)NC(=O)[C@H](C)NC(=O)[C@H](C)NC(=O)[C@H](CC(C)C)NC(=O)[C@H](CC(N)=O)NC(=O)[C@H](CC(=O)O)NC(=O)[C@H](CC(C)C)NC(=O)[C@@H](NC(=O)[C@@H](NC(=O)[C@H](CC(N)=O)NC(=O)[C@H](CCSC)NC(=O)[C@H](CCC(=O)O)NC(=O)[C@H](CC(=O)O)NC(=O)[C@H](CO)NC(=O)[C@H](Cc1ccccc1)NC(=O)[C@H](CO)NC(=O)CNC(=O)[C@H](CC(=O)O)NC(=O)C(C)(C)NC(=O)[C@@H](N)Cc1c[nH]cn1)[C@@H](C)O)[C@@H](C)CC)C(=O)N[C@@H](CC(N)=O)C(=O)N[C@@H](Cc1c[nH]c2ccccc12)C(=O)N[C@@H](CC(C)C)C(=O)N[C@H](C(=O)N[C@@H](CCC(N)=O)C(=O)N[C@H](C(=O)N[C@@H](CCCCN)C(=O)N[C@H](C(=O)N[C@H](C(=O)N[C@@H](CC(=O)O)C(=O)O)[C@@H](C)O)[C@@H](C)CC)[C@@H](C)O)[C@@H](C)CC [[Aib2]hGLP-2(1-33)] (H-H[Aib]DGSFSDEMNTILDNLAARDFINWLIQTKITD-OH) | 202 | 0 | –
H-HFDGSFSDEMNTILDNLAARDFINWLIQTKITD-OH [[Phe2]hGLP-2(1-33)] | 50 | 0 | –
H-AGDGSFSDEMNTILDNLAARDFINWLIQTKITD-OH [[Ala1,Gly2]hGLP-2(1-33)] | 53 | 0 | 23
CC[C@H](C)[C@H](NC(=O)[C@H](Cc1ccccc1)NC(=O)[C@H](CC(=O)O)NC(=O)[C@H](CCCNC(=N)N)NC(=O)[C@H](C)NC(=O)[C@H](C)NC(=O)[C@H](CC(C)C)NC(=O)[C@H](CC(N)=O)NC(=O)[C@H](CC(=O)O)NC(=O)[C@H](CC(C)C)NC(=O)[C@@H](NC(=O)[C@@H](NC(=O)[C@H](CC(N)=O)NC(=O)[C@H](CCSC)NC(=O)[C@H](CCC(=O)O)NC(=O)[C@H](CC(=O)O)NC(=O)[C@H](CO)NC(=O)[C@H](Cc1ccccc1)NC(=O)[C@H](CO)NC(=O)CNC(=O)[C@H](CC(=O)O)NC(=O)CNC(=O)[C@@H](N)Cc1c[nH]cn1)[C@@H](C)O)[C@@H](C)CC)C(=O)N[C@@H](CC(N)=O)C(=O)N[C@@H](Cc1c[nH]c2ccccc12)C(=O)N[C@@H](CC(C)C)C(=O)N[C@H](C(=O)N[C@@H](CCC(N)=O)C(=O)N[C@H](C(=O)N[C@@H](CCCCN)C(=O)N[C@H](C(=O)N[C@H](C(=O)N[C@@H](CC(=O)O)C(=O)N[C@@H](Cc1ccc(O)cc1)C(=O)O)[C@@H](C)O)[C@@H](C)CC)[C@@H](C)O)[C@@H](C)CC [[Gly2, Tyr34]hGLP-2(1-34)] | 297 | 0 | –
H-HAEGSFSDEMNTILDNLATRDFINWLIQTKITD-OH [[Glu3]ratGLP-2(1-33)] | 65 | 50 | 33
CC[C@H](C)[C@H](NC(=O)[C@H](Cc1ccccc1)NC(=O)[C@H](CC(=O)O)NC(=O)[C@H](CCCNC(=N)N)NC(=O)[C@H](C)NC(=O)[C@H](C)NC(=O)[C@H](CC(C)C)NC(=O)[C@H](CC(N)=O)NC(=O)[C@H](CC(=O)O)NC(=O)[C@H](CC(C)C)NC(=O)[C@@H](NC(=O)[C@@H](NC(=O)[C@H](CC(N)=O)NC(=O)[C@H](CCSC)NC(=O)[C@H](CCC(=O)O)NC(=O)[C@H](CC(=O)O)NC(=O)[C@H](CO)NC(=O)[C@H](Cc1ccccc1)NC(=O)[C@H](CO)NC(=O)CNC(=O)[C@H](CC(=O)O)NC(=O)[C@@H](NC(=O)[C@@H](N)Cc1c[nH]cn1)C(C)(C)S)[C@@H](C)O)[C@@H](C)CC)C(=O)N[C@@H](CC(N)=O)C(=O)N[C@@H](Cc1c[nH]c2ccccc12)C(=O)N[C@@H](CC(C)C)C(=O)N[C@H](C(=O)N[C@@H](CCC(N)=O)C(=O)N[C@H](C(=O)N[C@@H](CCCCN)C(=O)N[C@H](C(=O)N[C@H](C(=O)N[C@@H](CC(=O)O)C(=O)O)[C@@H](C)O)[C@@H](C)CC)[C@@H](C)O)[C@@H](C)CC [[Pen2]hGLP-2(1-33)] (H-H[Pen]DGSFSDEMNTILDNLAARDFINWLIQTKITD-OH) | 58 | 20 | –
H-HYDGSFSDEMNTILDNLAARDFINWLIQTKITD-OH [[Tyr2]hGLP-2(1-33)] | 57 | 0 | –
H-HGDASFSDEMNTILDNLAARDFINWLIQTKITD-OH [[Gly2,Ala4]hGLP-2(1-33)] | 100 | 0 | 36
H-HTDGSFSDEMNTILDNLAARDFINWLIQTKITD-OH [[Thr2]hGLP-2(1-33)] | 117 | 0 | –
H-HHDGSFSDEMNTILDNLAARDFINWLIQTKITD-OH [[His2]hGLP-2(1-33)] | 0 | 0 | –
Ac-HADGSFSDEMNTILDNLATRDFINWLIQTKITD-OH [Ac-ratGLP-2(1-33)] | 44 | 0 | –
H-HVDGSFSDEMNTILDNLAARDFINWLIQTKITD-OH [[Val2]hGLP-2(1-33)] | 180 | 13 | –
CC[C@H](C)[C@H](NC(=O)[C@H](Cc1ccccc1)NC(=O)[C@H](CC(=O)O)NC(=O)[C@H](CCCNC(=N)N)NC(=O)[C@H](C)NC(=O)[C@H](C)NC(=O)[C@H](CC(C)C)NC(=O)[C@H](CC(N)=O)NC(=O)[C@H](CC(=O)O)NC(=O)[C@H](CC(C)C)NC(=O)[C@@H](NC(=O)[C@@H](NC(=O)[C@H](CC(N)=O)NC(=O)[C@H](CCSC)NC(=O)[C@H](CCC(=O)O)NC(=O)[C@H](CC(=O)O)NC(=O)[C@H](CO)NC(=O)[C@H](Cc1ccccc1)NC(=O)[C@H](CO)NC(=O)CNC(=O)[C@H](CC(=O)O)NC(=O)[C@H](C)NC(=O)[C@@H](N)Cc1c[nH]cn1)[C@@H](C)O)[C@@H](C)CC)C(=O)N[C@@H](CC(N)=O)C(=O)N[C@@H](Cc1c[nH]c2ccccc12)C(=O)N[C@@H](CC(C)C)C(=O)N[C@H](C(=O)N[C@@H](CCC(N)=O)C(=O)N[C@H](C(=O)N[C@@H](CCCCN)C(=O)N[C@H](C(=O)N[C@H](C(=O)N[C@@H](CC(=O)O)C(=O)O)[C@@H](C)O)[C@@H](C)CC)[C@@H](C)O)[C@@H](C)CC [hGLP-2(1-33), reference compound] | 100 | 60 | –
H-HADGSFSDEMNTILDNLAARDFINWLIQTKITE-OH [[Glu33]hGLP-2(1-33)] | 121 | 55 | –
H-HADGAFADEMNTILDNLAARDFINWLIQTKITD-OH [[Ala5, Ala7]hGLP-2(1-33)] | 108 | 77 | –
H-HAPGSFSDEMNTILDNLAARDFINWLIQTKITD-OH [[Pro3]hGLP-2(1-33)] | 140 | 0 | –
H-HADGSFSDEMNTILDNLAARDFINFLIQTKITD-OH [[Phe25]hGLP-2(1-33)] | 114 | 54 | –
H-YGDGSFSDEMNTILDNLAARDFINWLIQTKITD-OH [[Tyr1, Gly2]hGLP-2(1-33)] | 241 | 0 | –
